Measured values published in patent publication US8211695B2, “Isolated transgenic mammalian neural cell for detection of a sample containing a chemical substance damage to neurological system or selection of drugs for treating neurodegenerative disorders” (Taipei Medical University, priority 2010, dated 2012).

Tested on: AhR
Assay: DRE driven luciferase activity of C6 DRE stable clone (pGL-2 pro/DRE) and pGL2 control cell line
Format: cell-based, rat
Details: C6 glioma cells, pGL-2 pro/DRE stable clone versus pGL2 control cell line; FIG. 1
Description: The plasmid pGL-2 pro/DRE was constructed by inserting a synthesized DNA fragment containing three rat dioxin responsive element (DRE, […] CGCAACTCGCTAGCATA; SEQ ID NO:1) between the KpnI and NheI sites of pGL2-promoter (pGL2 pro). To generate pGL-2 pro/DRE stable clones, plasmids pGL-2 pro/DRE and pCMV-Tag 2B were co-transfected into C6 glioma cells by Lipofectamine™ 2000. Meanwhile, plasmid pGL-2 pro and pCMV-Tag 2B were followed the same conditions to generate pGL-2 control cell line. These transfected cells were selected by Geneticin® (G418, 500 μg/ml) for 18 days. The stable clones of C6 cells were obtained and maintained in DMEM with 10% FBS and G418. To examine the stably insertion of pGL-2 pro/DRE or pGL-2 pro, the G418 resistant cells were harvested to extracted genomic DNA for polymerase chain reaction (PCR). The inserted DNA was confirmed to amplify 392 bps for pGL-2 pro/DRE stable insertion or 324 bps for pGL-2 pro (pGL-2) stable insertion, respectively. Finally, the metabolic degradable AhR agonist, 3-methylcholanthere (3MC), was used to examine the luciferase activity of pGL-2 pro/DRE C6 stable clones.
The metabolic degradable AhR agonist, 3-methylcholanthere (3MC), was used to examine the DRE driven luciferase activity of C6 DRE stable clone and pGL2 control cell line.

Cc1ccc2cc3c(ccc4ccccc43)c3c2c1CC3 [3MC, 3-methylcholanthere]
DRE driven luciferase activity (luminescence): increase luminescence in a dose response only in DRE stable clone
